PubChem BioAssay (NCI)
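1) Cells in 96-well plates. 2) Compound, 48 h, 5 concentrations. 3) Linear interpolation between surrounding doses. 4) Unreached endpoint = highest concentration. TGI marks complete inhibition of growth.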

How the values were obtained:
Experiment in all cases: NCI tumour cell line growth inhibition, 48 h
[1] = tested on: A498 renal
[2] = tested on: A549 NSCLC
[3] = tested on: CAKI-1 renal
[4] = tested on: CCRF-CEM leukemia
[5] = tested on: COLO 205 colon
[6] = tested on: DLD-1 colon
[7] = tested on: DMS 114 small cell lung
[8] = tested on: DMS 273 small cell lung
[9] = tested on: EKVX NSCLC
[10] = tested on: HCT-116 colon
[11] = tested on: HCT-15 colon
[12] = tested on: HL-60(TB) leukemia
[13] = tested on: HOP-18 NSCLC
[14] = tested on: HOP-62 NSCLC
[15] = tested on: HOP-92 NSCLC
[16] = tested on: HT29 colon
[17] = tested on: IGROV1 ovarian
[18] = tested on: K-562 leukemia
[19] = tested on: KM12 colon
[20] = tested on: KM20L2 colon
[21] = tested on: LOX IMVI melanoma
[22] = tested on: M19-MEL melanoma
[23] = tested on: MCF7 breast
[24] = tested on: MOLT-4 leukemia
[25] = tested on: NCI-H226 lung
[26] = tested on: NCI-H23 lung
[27] = tested on: NCI-H460 lung
[28] = tested on: NCI-H522 lung
[29] = tested on: NCI/ADR-RES ovarian
[30] = tested on: OVCAR-3 ovarian
[31] = tested on: OVCAR-4 ovarian
[32] = tested on: OVCAR-5 ovarian
[33] = tested on: OVCAR-8 ovarian
[34] = tested on: P388 leukemia
[35] = tested on: P388/ADR leukemia
[36] = tested on: RPMI-8226 leukemia
[37] = tested on: RXF 393 renal
[38] = tested on: SF-268 CNS
[39] = tested on: SF-295 CNS
[40] = tested on: SF-539 CNS
[41] = tested on: SK-MEL-2 melanoma
[42] = tested on: SK-MEL-28 melanoma
[43] = tested on: SK-MEL-5 melanoma
[44] = tested on: SK-OV-3 ovarian
[45] = tested on: SN12C renal
[46] = tested on: SN12K1 renal
[47] = tested on: SNB-19 CNS
[48] = tested on: SNB-75 CNS
[49] = tested on: SNB-78 CNS
[50] = tested on: SW-620 colon
[51] = tested on: U251 CNS
[52] = tested on: UACC-257 melanoma
[53] = tested on: UACC-62 melanoma
[54] = tested on: UO-31 renal
[55] = tested on: XF 498 CNS
[56] = tested on: 786-0 renal
[57] = tested on: ACHN renal
[58] = tested on: HCC-2998 colon
[59] = tested on: M14 melanoma
[60] = tested on: MALME-3M melanoma
[61] = tested on: RXF-631 renal
[62] = tested on: TK-10 renal
[63] = tested on: LXFL 529 NSCLC
[64] = tested on: SR leukemia

Measured: TGI

N/C(=N\N=C\c1ccc2c(c1)OCCO2)NO
98.6 µM: [22]
80.6 µM: [15]
> 53 µM: [54]
> 30.6 µM: [55]
> 57.7 µM: [46]
> 34.4 µM: [53]
> 72.7 µM: [21]
33.6 µM: [16]
> 63.2 µM: [12]
> 40.8 µM: [32]
16.2 µM: [30]
38.5 µM: [5]
> 61.2 µM: [52]
> 82.4 µM: [23]
> 72.4 µM: [18]
42.1 µM: [28]
> 49.1 µM: [38]
> 55.1 µM: [29]
57.6 µM: [8]
40.5 µM: [35]
> 76.6 µM: [33]
27.5 µM: [25]
57.1 µM: [39]
> 81.1 µM: [40]
> 52 µM: [20]
22.4 µM: [43]
> 32.6 µM: [47]
47.3 µM: [34]
70.4 µM: [41]
> 77.6 µM: [7]
93.2 µM: [14]
> 64.4 µM: [36]
> 82.9 µM: [2]
not listed: [56] | [57] | [58] | [59] | [60] | [61] | [62] | [63] | [64]
> 100 µM: all other assays above

CN1C(=O)C2C(C1=O)C1(O)c3ccccc3C2(N)c2ccccc21 (stereo not given)
not listed: [20] | [23] | [28] | [29] | [34] | [35] | [36] | [46] | [55] | [63] | [64]
> 100 µM: all other assays above

Cc1cc(C)cc(NC(N)=S)c1
18 µM: [50]
48 µM: [4]
98.1 µM: [37]
38.4 µM: [11]
59.1 µM: [5]
89.5 µM: [21]
not listed: [13] | [23] | [29] | [34] | [35] | [44] | [46]
> 100 µM: all other assays above
